Experimental data taken from patent US20120264799A1, “INDANE-AMINE DERIVATIVES, THEIR PREPARATION AND USE AS MEDICAMENTS” (LABORATORIOS DEL DR. ESTEVE ,S.A., priority 2009, published 2012).
pKi: −log10 of the molar value.

Molecular target: T1, Cloned Human Serotonin Receptor, Subtype 7 (h5HT7) (Homo sapiens, UniProt P34969)
T1 construct: purchased PerkinElmer 6120512; host or cells: CHO cells
Experiment: Radioligand binding assay, [125I]LSD, Flashplate
Conditions: h5HT7 expressed in CHO cells; radioligand [125I]LSD 0.82 nM; 240 min at room temperature; read-out: 5-HT7 Ki
Procedure: Radioligand binding assays were performed using the Cloned Human Serotonin Receptor, Subtype 7 (h5HT7), expressed in CHO cells, coated on Flashplate (Basic FlashPlate Cat.: SMP200) from PerkinElmer (Cat.: 6120512). The protocol assay was essentially the recommended protocol in the Technical Data Sheet by PerkinEmer Life and Analytical Sciences. The Mass membrane protein/well was typically […] and the Receptor/well was about 9-10 fmoles. The Flashplate were let equilibrate at room temperature for one hour before the addition of the components of the assay mixture. The binding buffer was: 50 mM Tris-HCl, pH 7.4, containing 10 mM MgCl2, 0.5 mM EDTA and 0.5% BSA. The radioligand was [^125l]LSD at a final concentration of 0.82 nM. Nonspecific binding was determined with 50 µM of Clozapine. The assay volume was […]. […] The radioactivity were quantified by liquid scintillation spectrophotometry (Wallac 1450 Microbeta Trilux) with a count delay of 4 minutes prior to counting and a counting time of 30 seconds per well. Competition binding data were analyzed by using the LIGAND program (Munson and Rodbard, LIGAND: A versatile, computerized approach for characterization of ligandbinding systems. Anal. Biochem. 107: 220-239, 1980) and assays were performed in triplicate determinations for each point.

T1 sequence (P34969 whole entry): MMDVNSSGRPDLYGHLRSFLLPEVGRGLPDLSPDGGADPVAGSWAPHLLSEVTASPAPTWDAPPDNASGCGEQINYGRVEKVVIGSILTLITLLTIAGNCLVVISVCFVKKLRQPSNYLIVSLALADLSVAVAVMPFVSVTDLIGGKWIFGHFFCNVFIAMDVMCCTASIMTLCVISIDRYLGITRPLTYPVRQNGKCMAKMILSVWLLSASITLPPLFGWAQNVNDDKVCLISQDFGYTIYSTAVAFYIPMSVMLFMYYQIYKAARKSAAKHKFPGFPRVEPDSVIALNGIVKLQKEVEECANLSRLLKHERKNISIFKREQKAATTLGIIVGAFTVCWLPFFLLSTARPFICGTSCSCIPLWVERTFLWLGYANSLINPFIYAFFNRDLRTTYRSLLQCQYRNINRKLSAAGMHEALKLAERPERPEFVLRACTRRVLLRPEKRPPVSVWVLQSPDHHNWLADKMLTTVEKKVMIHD

| pKi | SMILES |
| --- | --- |
| 6.37 | Cc1nn(C)c(-c2ccc3c(c2)C(N(C)C)CC3)c1C (centres unmarked) [Example 3, N,N-dimethyl-6-(1,3,4-trimethyl-1H-pyrazol-5-yl)-2,3-dihydro-1H-inden-1-amine] |
| 6.44 | Cc1nn(C(C)C)c(-c2ccc3c(c2)C(N(C)C)CC3)c1C (centres unmarked) [Example 9, 6-(1-lsopropyl-3,4-dimethyl-1H-pyrazol-5-yl)-N,N-dimethyl-2,3-dihydro-1H-inden-1-amine] |
